Molecules are shown by their SMILES.

Format in all cases: cell-based
Experiment [1] relates to T47D (PI3Kα H1047R mutant) cells. The experiment in a line: Cell viability (CellTiter-Glo 2.0) in T47D cells. The conditions noted are these: Homo sapiens, T47D, 72 h, approximately 72 hours. The gist of the method: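 SKBR3 or T47D cells, 1000 per well, were seeded overnight and then exposed ~72 h at 37° C to 10 concentrations of compound, 1:4 dilutions from 10 μm. Viability read by CellTiter-Glo luminescence as percent of vehicle; IC50 from four-parameter variable-slope fit.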

The subject of experiment [2] is pAKT in T47D (PI3Kα H1047R mutant) cells. Nature of the experiment: Inhibition of pAKT (alphaLISA Surefire Ultra AKT 1/2/3 pS473) in T47D cells. To be noted: Homo sapiens; T47D (PI3Kα H1047R mutant) cells, 24 hr compound incubation, alphaLISA pS473; read-out: T47D (H1047R) pAKT 24 hr (IC50). The gist of the method:
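Cells in HBSS were dosed from 10.4 μm (1:4 serial dilution, 10 concentrations) and incubated about 24 hours at 37° C, then lysed. pAKT S473 measured by alphaLISA after overnight bead incubation. Signal normalised to alpelisib (3.125 μm) and DMSO controls; IC50 from four-parameter fit.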

Experiment [3] relates to SKBR3 (PI3Kα wild type) cells. Nature of the experiment: Cell viability (CellTiter-Glo 2.0) in SKBR3 cells. To be noted: Homo sapiens, SK-BR-3; SKBR3 (PI3Kα wild type) cells, approximately 72 hours, CellTiter-Glo 2.0; read-out: SKBR3 (WT) Viability IC50. As for the experimental part: This Example illustrates that representative compounds of the invention decrease the viability of cells.
The ability of a compound of Formula (I) to decrease the viability of cells was measured using CellTiter-Glo 2.0 (CTG) Luminescent Cell Viability Assay (#G9241) obtained from Promega (Madison, WI).
To prepare assay plates for viability assays, cells were trypsinized, resuspended in fresh media, and viable cells were counted utilizing trypan blue exclusion. T47D, SKBR3, or MKN1 cells were seeded at 1000 cells in 30 μl per well in a solid white flat bottom 384 cell culture plate (Perkin Elmer #6007680) and incubated at 37° C. overnight.
Assay day 1, cells were dosed using an Echo Liquid Handler (Beckman Coulter) with compounds at a 10 μm starting concentration and serially diluted (1:4) for a total of 10 concentrations. Cells were incubated for approximately 72 hours with the compounds (solubilized in DMSO) at 37° C. After 72 hours of treatment, cell plates were equilibrated to room temperature before adding 15 μl of CTG to each well, plates were then covered in aluminum foil to protect from light, incubated at room temperature for 30 minutes on a microtiter plate shaker, and luminescence readings were collected using a CLARIOstar microplate reader (BMG Labtech, Germany). Percent of vehicle control values were plotted as log(inhibitor) vs. response—Variable slope (four parameters) for curve fitting and IC50 values were determined using XLfit.

`Cc1cc([C@@H](C)Nc2ccc(Cl)nc2C(=O)O)c2nc(N3C[C@@H]4C[C@H]3CC4(F)F)c(C#N)nc2c1` (single isomer, unassigned) [Example 8]: the values for the half-inhibitory concentration (IC50) in experiment [1], in experiment [2] and in experiment [3] were 34.1 nM, 7.7 nM and 3.62 µM, respectively.

Regarding `Cc1cc([C@@H](C)Nc2ccc(Cl)nc2C(=O)O)c2nc(N3C[C@H]4C[C@@H]3CC4(F)F)c(C#N)nc2c1` (single isomer, unassigned) [Example 9], the IC50 in experiment [1] worked out at 65.1 nM; in experiment [2], 7.5 nM; in experiment [3], 3.41 µM.

As to `Cc1cc([C@@H](C)Nc2ccc(Cl)nc2C(=O)O)c2nc(N3CC4C[C@@]4(C(F)(F)F)C3)c(C#N)nc2c1` (single isomer, unassigned) [Example 43A], the figures for the 50% inhibitory concentration (IC50) in experiment [1], in experiment [2] and in experiment [3] were 99 nM, 4.8 nM and above 10 µM, respectively.

Regarding `Cc1cc([C@@H](C)Nc2ccc(Cl)nc2C(=O)O)c2nc(N3CC4C[C@]4(C(F)(F)F)C3)c(C#N)nc2c1` (single isomer, unassigned) [Example 43B], the IC50 in experiment [1] came out at 271 nM; in experiment [2], 16.8 nM; in experiment [3], 4.03 µM.

For the molecule `Cc1cc([C@@H](C)Nc2ccccc2C(=O)O)c2nc(NC[C@]3(C)CC3(F)F)c(C#N)nc2c1` (single isomer, unassigned) [Example 75A], the IC50 is 701 nM in experiment [1], 52 nM in experiment [2] and above 10 µM in experiment [3].

In the case of `Cc1cc([C@@H](C)Nc2ccccc2C(=O)O)c2nc(NC[C@@]3(C)CC3(F)F)c(C#N)nc2c1` (single isomer, unassigned) [Example 75B], the 50% inhibitory concentration (IC50) in experiment [1] was 720 nM; in experiment [2] it was 39 nM; in experiment [3], above 10 µM.

For the molecule `CO[C@H](C)C1CCN(c2nc3c([C@@H](C)Nc4ccc(Cl)nc4C(=O)O)cc(C)cc3nc2C#N)CC1` (single isomer, unassigned) [Example 195A], the values for the IC50 in experiment [1], in experiment [2] and in experiment [3] were 84.1 nM, 0.47 nM and above 10 µM, respectively.

With `CO[C@@H](C)C1CCN(c2nc3c([C@@H](C)Nc4ccc(Cl)nc4C(=O)O)cc(C)cc3nc2C#N)CC1` (single isomer, unassigned) [Example 195B], the IC50 in experiment [1] is 100 nM; in experiment [2] it was 0.37 nM; in experiment [3], above 10 µM.

Turning to `Cc1cc([C@@H](C)Nc2ccccc2C(=O)O)c2nc(N3CCN(C(=O)C[C@@H]4CC4(F)F)CC3)c(C#N)nc2c1` (single isomer, unassigned) [Example 197], the concentration for half-maximal inhibition (IC50) in experiment [1] was 105 nM; in experiment [2] it was 1.8 nM; in experiment [3] it was above 10 µM.

Consider `Cc1cc([C@@H](C)Nc2ccc(Cl)nc2C(=O)O)c2nc(N3C[C@H](CO)C(F)(F)C3)c(C#N)nc2c1` (single isomer, unassigned) [Example 210A], for which the IC50 was 135 nM in experiment [1], 0.69 nM in experiment [2] and above 10 µM in experiment [3].

Regarding `Cc1cc([C@@H](C)Nc2ccc(Cl)nc2C(=O)O)c2nc(N3C[C@@H](CO)C(F)(F)C3)c(C#N)nc2c1` (single isomer, unassigned) [Example 210B], the concentration for half-maximal inhibition (IC50) in experiment [1] was 121 nM; in experiment [2] it was 0.8 nM; in experiment [3], above 10 µM.

With `COC[C@@H]1CN(c2nc3c([C@@H](C)Nc4ccc(Cl)nc4C(=O)O)cc(C)cc3nc2C#N)CC1(F)F` (single isomer, unassigned) [Example 211A], the IC50 in experiment [1] is 78 nM; in experiment [2] it was 5.7 nM; in experiment [3] it was 6.9 µM.

Regarding `COC[C@H]1CN(c2nc3c([C@@H](C)Nc4ccc(Cl)nc4C(=O)O)cc(C)cc3nc2C#N)CC1(F)F` (single isomer, unassigned) [Example 211B], the IC50 came to 2.7 nM in experiment [1], 2.6 nM in experiment [2] and 6.8 µM in experiment [3].

Regarding `Cc1cc([C@@H](C)Nc2ccc(Cl)nc2C(=O)O)c2nc(N3C[C@H]4COC[C@@H]4C3)c(C#N)nc2c1` (single isomer, unassigned) [Example 229A], the values for the IC50 in experiment [1], in experiment [2] and in experiment [3] were 16.6 nM, 0.55 nM and 3.08 µM, respectively.

Turning to `Cc1cc([C@@H](C)Nc2ccc(Cl)nc2C(=O)O)c2nc(N3C[C@@H]4COC[C@H]4C3)c(C#N)nc2c1` (single isomer, unassigned) [Example 229B], the results for the concentration for half-maximal inhibition (IC50) in experiment [1], in experiment [2] and in experiment [3] were 18.6 nM, 1.2 nM and 4.92 µM, respectively.

For `Cc1cc([C@@H](C)Nc2ccc(Cl)nc2C(=O)O)c2nc(N3CCC(F)(F)[C@@H](CO)C3)c(C#N)nc2c1` (single isomer, unassigned) [Example 234A], the values for the concentration for half-maximal inhibition (IC50) in experiment [1], in experiment [2] and in experiment [3] were 73 nM, 2.8 nM and above 10 µM, respectively.

As to `Cc1cc([C@@H](C)Nc2ccc(Cl)nc2C(=O)O)c2nc(N3CCC(F)(F)[C@H](CO)C3)c(C#N)nc2c1` (single isomer, unassigned) [Example 234B], the 50% inhibitory concentration (IC50) in experiment [1] was 85 nM; in experiment [2] it was 3.6 nM; in experiment [3], above 10 µM.

For the molecule `Cc1cc([C@@H](C)Nc2ccc(Cl)nc2C(=O)O)c2nc(N3CCO[C@@H]4C[C@@H]43)c(C#N)nc2c1` (single isomer, unassigned) [Example 239A], the IC50 in experiment [1] was 39 nM; in experiment [2], 1 nM; in experiment [3] it was above 10 µM.

For `Cc1cc([C@@H](C)Nc2ccc(Cl)nc2C(=O)O)c2nc(N3CCO[C@H]4C[C@H]43)c(C#N)nc2c1` (single isomer, unassigned) [Example 239B], the figures for the 50% inhibitory concentration (IC50) in experiment [1], in experiment [2] and in experiment [3] were 22 nM, 0.4 nM and 7.26 µM, respectively.

As for `Cc1cc([C@@H](C)Nc2ccc(Cl)nc2C(=O)O)c2nc(N3C[C@@H]4CO[C@@H](C4)C3)c(C#N)nc2c1` (single isomer, unassigned) [Example 243A], the concentration for half-maximal inhibition (IC50) worked out at 62 nM in experiment [1], 0.34 nM in experiment [2] and 2.86 µM in experiment [3].

As to `Cc1cc([C@@H](C)Nc2ccccc2C(=O)O)c2nc(N3CCc4ccncc4C3)c(C#N)nc2c1` [Example 89, (R)-2-((1-(2-cyano-3-(3,4-dihydro-2,7-naphthyridin-2(1H)-yl)-7-methylquinoxalin-5-yl)ethyl)amino)benzoic acid], the IC50 in experiment [1] was 63.2 nM; in experiment [3], above 10 µM.

Turning to `Cc1cc([C@@H](C)Nc2ccc(Cl)nc2C(=O)O)c2nc(N3CCC(S(C)(=O)=O)CC3)c(C#N)nc2c1` [Example 106, (R)-6-chloro-3-((1-(2-cyano-7-methyl-3-(4-(methylsulfonyl)piperidin-1-yl)quinoxalin-5-yl)ethyl)amino)picolinic acid], the values for the half-inhibitory concentration (IC50) in experiment [1] and in experiment [3] were 98.1 nM and above 10 µM, respectively.

Take `Cc1cc([C@@H](C)Nc2ccc(Cl)nc2C(=O)O)c2nc(N3CC[S+]([O-])CC3)c(C#N)nc2c1` [Example 107, (R)-6-chloro-3-((1-(2-cyano-7-methyl-3-(1-oxidothiomorpholino)quinoxalin-5-yl)ethyl)amino)picolinic acid]: the IC50 in experiment [1] was 216 nM; in experiment [3] it was above 10 µM.

Turning to `Cc1cc([C@@H](C)Nc2ccccc2-c2nnn[nH]2)c2nc(N3CCOCC3)c(C#N)nc2c1` [Example 852, (R)-5-(1-((2-(1H-tetrazol-5-yl)phenyl)amino)ethyl)-7-methyl-3-morpholinoquinoxaline-2-carbonitrile], the IC50 in experiment [1] is 1440 nM; in experiment [3], above 10 µM.

Consider `Cc1cc([C@@H](C)Nc2ccccc2C#N)c2nc(N3CCOCC3)c(C#N)nc2c1` [Example 853, (R)-5-(1-((2-cyanophenyl)amino)ethyl)-7-methyl-3-morpholinoquinoxaline-2-carbonitrile], for which the half-maximal inhibitory concentration (IC50) is 4340 nM in experiment [1] and above 10 µM in experiment [3].

Regarding `Cc1cc([C@@H](C)Nc2ccc(Cl)nc2-c2nnn[nH]2)c2nc(N3CCOCC3)c(C#N)nc2c1` [Example 854, (R)-5-(1-((6-chloro-2-(1H-tetrazol-5-yl)pyridin-3-yl)amino)ethyl)-7-methyl-3-morpholinoquinoxaline-2-carbonitrile], the IC50 in experiment [1] turned out to be 52 nM; in experiment [3] it was 4.38 µM.

In the case of `Cc1cc([C@@H](C)Nc2ccc(Cl)nc2C#N)c2nc(N3CCOCC3)c(C#N)nc2c1` [Example 855, (R)-5-(1-((6-chloro-2-cyanopyridin-3-yl)amino)ethyl)-7-methyl-3-morpholinoquinoxaline-2-carbonitrile], the half-inhibitory concentration (IC50) stood at 1080 nM in experiment [1] and 6.9 µM in experiment [3].

Consider `CNC(=O)c1ccccc1N[C@H](C)c1cc(C)cc2nc(C#N)c(N3CCOCC3)nc12` [Example 856, (R)-2-((1-(2-cyano-7-methyl-3-morpholinoquinoxalin-5-yl)ethyl)amino)-N-methylbenzamide], for which the half-inhibitory concentration (IC50) turned out to be 3440 nM in experiment [1] and 3.56 µM in experiment [3].

(Values after patent publication US20240391882A1 (Mirati Therapeutics, Inc., priority 2023, published 2024).)
